In publication PMC6423129, “Activity and structural analysis of GRL-117C: a novel small molecule CCR5 inhibitor active against R5-tropic HIV-1s” (Scientific Reports, 2019):

How the values were obtained:
CCR5 [1] = biological target: T1, CCR5 (Homo sapiens, UniProt P51681); assay: Inhibition of 125I-RANTES binding to CCR5 (CCR5+ CHO cells)
T1 construct: expressed in transfected cells; host or cells: Chinese hamster ovary (CHO) cells expressing CCR5
Experimental: (§1) In order to determine whether GRL derivatives block the binding of CC-chemokines to CCR5, we conducted a CC-chemokine binding inhibition assay using ^125I-labeled CC-chemokines (^125I-RANTES, ^125I-MIP-1α, and ^125I-MIP-1β) and CCR5 expressing cells.
(§2) CCR5^+ CHO cells were incubated with (A) ^125I-MIP-1α, (B) ^125I-MIP-1β, and (C) ^125I-RANTES (200 ng/ml) in the presence or absence of varying concentrations of CCR5 inhibitors. Data are shown as means ± s.d. of three independent experiments.
(§3) The inhibition of the binding of ^125I-labeled CC-chemokines ([^125I] RANTES, [^125I] MIP-1α, or [^125I] MIP-1β) to CCR5 by various CCR5 inhibitors was measured as previously described. Calcium flux inhibition assays were also performed with CCR5 inhibitors, and were carried out with the Fluo-4 Direct^TM calcium reagent (Invitrogen); assays were conducted as previously described with minor modifications. In brief, CHO-CCR5 cells (5 × 10^5 cells) were exposed to Fluo-4 Direct^TM calcium reagent for 60 min at 37 °C in RPMI containing 5% FCS. Cells were then incubated with the test compound for 30 min at varying concentrations. Subsequently, cells were exposed to either MIP-1α, MIP-1β, or RANTES at 200 ng/ml. Relative increases in cytosolic Ca^2+ levels after chemokine exposure were determined with flow cytometry (FACSCalibur, BD Biosciences), and IC50 values of cytosolic Ca^2+ mobilization (Ca^2+ flux) were compared with the Ca^2+ flux level in drug-free control samples.

CCR5 [2] = biological target: T1, CCR5; assay: Inhibition of 125I-MIP-1α binding to CCR5 (CCR5+ CHO cells)
Experimental: as §1, §2, §3

pTHRO.c/2626 = assay: MAGI assay, T/F HIV-1 clone pTHRO.c/2626; assay type: cell-based; details: Human immunodeficiency virus 1, MAGI
Text: (§4) We also examined the activity of GRL-compounds against Transmitter/founder (T/F) HIV-1 viruses. T/F viruses are involved in the initial infection. It is considered that T/F viruses virtually always use CCR5 rather than CXCR4 and infect T cells but not macrophages because […] of CD4 is needed to mediate virus entry for the initial transmission[20]–[24]. […] We obtained four HIV-1 T/F infectious clones. We determined the antiviral activity of GRL-117C, GRL-10007C and GRL-10018C on these HIV-1 clones using MAGI assay.
(§5) MAGI-CCR5 cells[18] were maintained in DMEM supplemented with 10% fetal calf serum (FCS: Gemini Bio-Products, West Sacramento, CA), 200 μg/ml G418, 100 μg/ml hygromycin B, and 100 μg/ml zeomycin. The Chinese hamster ovary (CHO) cells expressing CCR5[19] were maintained in Ham’s F-12 medium (GIBCO-BRL, Rockville, MD) supplemented with 10% FCS, 50 U/ml penicillin, and 50 μg/ml streptomycin in the presence of 5 μg/ml blasticidin S hydrochloride. TZM-bl cells were obtained from the NIH AIDS Reagent Program, and were cultured in DMEM with 10% FCS. Peripheral blood mononuclear cells (PBMCs) were isolated from buffy coats of HIV-1 seronegative individuals, and were activated with 10 μg/ml phytohemagglutinin (PHA) prior to use[16]. A laboratory wild-type R5-HIV-1 strain (HIV-1Ba-L)[37] was employed for drug susceptibility assays. AD101 (experimental CCR5 inhibitor) and VVC-resistant HIV clones[7],[8] were provided by Dr. John P. Moore of Cornell University for this study. The clones were propagated with activated PBMCs, and were used for the assays. […] The following reagents (plasmids) for T/F HIV-1 viruses[22],[24] were obtained through the NIH AIDS Reagent Program, Division of AIDS, NIAID, NIH: pCH040.c/2625 (cat# 11740), pCH106.c/2633 (cat# 11743), pTHRO.c/2626 (cat# 11745), and pCH058.c/2960 (cat# 11856), from Dr. John Kappes and Dr. Christina Ochsenbauer.
(§6) Antiviral assays using PHA-PBMCs (p24 assay) were conducted as previously reported[16],[38]. In brief, PHA-PBMCs (1 × 10^6/ml) were exposed to 50 TCID50 of HIV-1Ba-L or drug-resistant HIV-1 infectious clones in the presence or absence of various concentrations of drugs; 10-fold serial dilutions were performed in 96-well microculture plates. The amount of p24 antigens produced by the cells was determined on day 7 in the culture via a commercially available ELISA kit (PerkinElmer). The p24 production level in drug-free control cell cultures was used as the reference. […] Antiviral assays using MAGI-CCR5 cells (MAGI assay) were conducted as previously reported[16],[39]. Single-round virus infection assays using TZM-bl cells infected with R5-HIV-1s (HIV-1YU2, HIV-1KP-5pc, and HIV-1KP-5mvcR)[10] were also conducted as previously described.

CCR5 [3] = biological target: T1, CCR5; assay: Inhibition of 125I-MIP-1β binding to CCR5 (CCR5+ CHO cells)
Experimental: as §1, §2, §3

pCH040.c/2625 = assay: MAGI assay, T/F HIV-1 clone pCH040.c/2625; assay type: cell-based; details: Human immunodeficiency virus 1, MAGI
Text: as §4, §5, §6

[4] = test system: Transmitter/founder (T/F) HIV-1 viruses; assay: MAGI assay, all four T/F viruses (range); assay type: cell-based; details: Human immunodeficiency virus 1, MAGI, read-out: IC50 values (range over four T/F viruses)
Text: as §4
MAGI-CCR5 cells[18] were maintained in DMEM supplemented with 10% fetal calf serum (FCS: Gemini Bio-Products, West Sacramento, CA), 200 μg/ml G418, 100 μg/ml hygromycin B, and 100 μg/ml zeomycin. The Chinese hamster ovary (CHO) cells expressing CCR5[19] were maintained in Ham’s F-12 medium (GIBCO-BRL, Rockville, MD) supplemented with 10% FCS, 50 U/ml penicillin, and 50 μg/ml streptomycin in the presence of 5 μg/ml blasticidin S hydrochloride. TZM-bl cells were obtained from the NIH AIDS Reagent Program, and were cultured in DMEM with 10% FCS. […]
Antiviral assays using PHA-PBMCs (p24 assay) were conducted as previously reported[16],[38]. […] The amount of p24 antigens produced by the cells was determined on day 7 in the culture via a commercially available ELISA kit (PerkinElmer). […]

T1 sequence (P51681 whole entry): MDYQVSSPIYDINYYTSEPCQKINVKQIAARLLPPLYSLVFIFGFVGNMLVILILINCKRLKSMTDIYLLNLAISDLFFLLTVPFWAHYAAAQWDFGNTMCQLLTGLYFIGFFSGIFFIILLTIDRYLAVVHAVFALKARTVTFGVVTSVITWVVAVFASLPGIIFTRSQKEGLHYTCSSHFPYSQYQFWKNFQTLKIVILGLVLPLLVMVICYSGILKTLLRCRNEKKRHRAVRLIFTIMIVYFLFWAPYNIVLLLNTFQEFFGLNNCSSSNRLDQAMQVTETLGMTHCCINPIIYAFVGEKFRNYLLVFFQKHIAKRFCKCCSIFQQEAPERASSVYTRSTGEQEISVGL

Q: For `C=CCN(C(=O)OCc1ccc([N+](=O)[O-])cc1)C1CC2CCC(C1)N2CCC(C)(CN(C)S(=O)(=O)c1ccccc1)c1ccccc1` (stereo not drawn) [GRL-117C], which EC50 (CCR5 [1]) is on record?
A: 121 nM

Q: What about the EC50 (CCR5 [2]) of the same compound?
A: 4.3 nM

Q: And the IC50 (pTHRO.c/2626)?
A: 2.1 ± 0.2 nM

Q: What about the EC50 (CCR5 [3]) of the same compound?
A: 2 nM

Q: What about the IC50 (pCH040.c/2625) of the same compound?
A: 2 ± 0.6 nM

Q: What about the IC50 [4] of the same compound?
A: 1.9 to 3.2 nM
